Laboratory results from US20240294548A1, “TRICYCLIC SULTAMS AND SULFAMIDES AS ANTITUMOR AGENTS” (PELOTON THERAPEUTICS INC., priority 2021, published 2024).
Where two headings read alike, the source gives them in different places.

Key:
[1] = molecular target: T1, DCAF15 RBM39 ternary complex (Homo sapiens, UniProt Q14498+Q66K64, DEL276-383); assay: DCAF15 RBM39 complex formation assay (FRET); type: biochemical
T1 construct: Amino acids 150 to 331 of RBM39 were cloned into pGEX4T3; GST (from the pGEX4T3 vector, own knowledge) followed by a TEV cleavage site (N); made in house; host or cells: Sf9 baculovirus (DDB1ΔB/DCAF15); E. coli (RBM39 R1R2)
T1 sequence (Q66K64 with tags, fused parts or gaps DEL276-383): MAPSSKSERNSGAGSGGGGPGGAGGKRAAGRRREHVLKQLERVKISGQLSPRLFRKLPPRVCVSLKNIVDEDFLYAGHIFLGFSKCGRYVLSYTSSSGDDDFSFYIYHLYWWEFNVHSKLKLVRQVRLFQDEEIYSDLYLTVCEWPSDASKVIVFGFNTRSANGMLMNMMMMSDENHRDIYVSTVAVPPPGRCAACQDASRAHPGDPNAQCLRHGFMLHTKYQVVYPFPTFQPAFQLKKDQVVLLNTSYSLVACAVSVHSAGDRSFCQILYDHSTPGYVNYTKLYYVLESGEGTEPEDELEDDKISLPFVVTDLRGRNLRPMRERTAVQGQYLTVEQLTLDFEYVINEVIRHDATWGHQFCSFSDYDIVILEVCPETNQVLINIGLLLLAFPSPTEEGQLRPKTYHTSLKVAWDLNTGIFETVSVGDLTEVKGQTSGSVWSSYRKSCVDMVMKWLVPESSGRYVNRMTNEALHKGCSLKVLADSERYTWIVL
T1 sequence (Q14498 150-331, stated change not applied): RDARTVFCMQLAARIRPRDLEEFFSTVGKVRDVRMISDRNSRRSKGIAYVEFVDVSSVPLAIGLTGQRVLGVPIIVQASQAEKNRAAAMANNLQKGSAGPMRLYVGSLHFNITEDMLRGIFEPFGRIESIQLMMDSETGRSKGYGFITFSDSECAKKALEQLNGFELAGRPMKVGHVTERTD
How it was run: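 Mix of 20 nM DDB1DB/DCAF15, 50 nM RBM39 R1R2, 0.2 nM Eu-anti-6×His and 50 nM APC-anti-FLAG (25 mM HEPES pH 7.5, 100 mM NaCl). Compounds, 1 μM down in 3-fold steps over 14 points, kept overnight at 4 °C.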

[2] = test system: HCT116 human colorectal carcinoma cells; assay: CellTiter-Glo assay (cell viability); type: cell-based; conditions: HCT-116, 72 h, read-out: CTG IC50
How it was run: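 Cells (3,000/well) in DMEM/10% FBS were treated next day with 3-fold serial dilutions (final top […]) in triplicate for 3 days. Viability read by CellTiter-Glo luminescence; IC50 derived from dose-response.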

[3] = molecular target: T2, DCAF15 (DDA1-DDB1ΔB-DCAF15Δpro) (Homo sapiens, UniProt Q66K64, DEL276-383); assay: DCAF15 displacement assay (displacement FRET, probe PT7795); type: binding
T2 construct: made in house; host or cells: Sf9 (Bac-to-Bac baculovirus)

[4] = FRET ratio, 20 nM DDB1DB/DCAF15, 50 nM RBM39 R1R2, overnight at 4° C., read-out: DCAF15 RBM39 ternary complex EC50
[5] = HCT116 cells, 3 days, CellTiter-Glo luminescence
[6] = displacement of PT7795 (300 nM), compound 0.01 to 100 μM, 18 hours incubation, read-out: DCAF15 displacement IC50

Compound | EC50 [1, 4] [nM] | IC50 [2, 5] [nM] | IC50 [3, 6] [nM] | EC50 [1] [nM] | IC50 [2] [nM] | IC50 [3] [nM]
O=S1(=O)Nc2c(cc(Cl)c3c(Cl)c[nH]c23)CN1Cc1ccccc1F [Compound 70, 6,7-dichloro-3-(2-fluorobenzyl)-1,3,4,9-tetrahydro-[1,2,6] thiadiazino[4,3-g]indole 2,2-dioxide] | 3.3 | 833 | 1950 |  |  | 
O=S1(=O)Nc2c(cc(Cl)c3c(Cl)c[nH]c23)CN1CCN1CCOCC1 [Compound 71, 6,7-dichloro-3-(2-morpholinoethyl)-1,3,4,9-tetrahydro-[1,2,6] thiadiazino[4,3-g]indole 2,2-dioxide] |  |  |  | 2.1 | 353 | 952
CS(=O)(=O)N1CCC(CN2Cc3cc(Cl)c4c(Cl)c[nH]c4c3NS2(=O)=O)CC1 [Compound 72, 6,7-dichloro-3-((1-(methylsulfonyl)piperidin-4-yl)methyl)-1,3,4,9-tetrahydro-[1,2,6]thiadiazino[4,3-g]indole 2,2-dioxide] | 1.2 | 150 | 223 |  |  | 
O=S1(=O)Nc2c(cc(Cl)c3c(Cl)c[nH]c23)CN1Cc1cccc(O)c1 [Compound 73, 6,7-dichloro-3-(3-hydroxybenzyl)-1,3,4,9-tetrahydro-[1,2,6] thiadiazino[4,3-g]indole 2,2-dioxide] | 1.3 | 418 | 1650 |  |  | 
Nc1ccccc1CN1Cc2cc(Cl)c3c(Cl)c[nH]c3c2NS1(=O)=O [Compound 74, 3-(2-aminobenzyl)-6,7-dichloro-1,3,4,9-tetrahydro-[1,2,6] thiadiazino[4,3-g]indole 2,2-dioxide] | 1.3 | 171 | 301 |  |  | 
O=S1(=O)Nc2c(cc(Cl)c3c(Cl)c[nH]c23)CN1Cc1cccc(F)c1 [Compound 75, 6,7-dichloro-3-(3-fluorobenzyl)-1,3,4,9-tetrahydro-[1,2,6] thiadiazino[4,3-g]indole 2,2-dioxide] | 2.3 | 850 | 4320 |  |  | 
Nc1cccc(CN2Cc3cc(Cl)c4c(Cl)c[nH]c4c3NS2(=O)=O)c1 [Compound 76, 3-(3-aminobenzyl)-6,7-dichloro-1,3,4,9-tetrahydro-[1,2,6] thiadiazino[4,3-g]indole 2,2-dioxide] | 1.2 | 254 | 569 |  |  | 
CN1CCC(CN2Cc3cc(Cl)c4c(Cl)c[nH]c4c3NS2(=O)=O)CC1 [Compound 83, 6,7-dichloro-3-((1-methylpiperidin-4-yl)methyl)-1,3,4,9-tetrahydro-[1,2,6]thiadiazino[4,3-g]indole 2,2-dioxide] | 2.3 | 66.9 | 781 |  |  | 
O=S1(=O)Nc2c(cc(Cl)c3c(Cl)c[nH]c23)CN1CCc1ccccc1 [Compound 84, 6,7-dichloro-3-phenethyl-1,3,4,9-tetrahydro-[1,2,6] thiadiazino[4,3-g]indole 2,2-dioxide] | 4.3 | 1790 | 33100 |  |  | 
O=S1(=O)Nc2c(cc(Cl)c3c(Cl)c[nH]c23)CN1CC1CC(F)(F)C1 [Compound 85, 6,7-dichloro-3-((3,3-difluorocyclobutyl)methyl)-1,3,4,9-tetrahydro-[1,2,6] thiadiazino[4,3-g]indole 2,2-dioxide] | 2 | 302 | 8380 |  |  | 
O=S1(=O)Nc2c(cc(Cl)c3c(Cl)c[nH]c23)CN1CC1CCOC1 (stereo not drawn) [Compound 86, 6,7-dichloro-3-((tetrahydrofuran-3-yl)methyl)-1,3,4,9-tetrahydro-[1,2,6] thiadiazino[4,3-g]indole 2,2-dioxide] | 1.3 | 121 | 410 |  |  | 
COCCN1Cc2cc(C)c3c(Cl)c[nH]c3c2NS1(=O)=O [Compound 87, 7-chloro-3-(2-methoxyethyl)-6-methyl-1,3,4,9-tetrahydro-[1,2,6] thiadiazino[4,3-g]indole 2,2-dioxide] | 1.8 | 258 | 6220 |  |  | 
